Measured values taken from patent US9175037B2, “Neuromedin U derivative” (Takeda Pharmaceutical Company Limited, priority 2009, dated 2015).
Non-standard residues stand in square brackets, D forms with d. No end group written: not given here. *: point of attachment. Acetyl(2-(piperazin-1-yl)) = O=C(CN1CCNCC1)*; PEG20k = methoxypolyethylene glycol 20k; NMeA = CN[C@@H](C)C(=O)O; βAla = NCCC(=O)O

How the values were obtained:
[1] = target: T1, Human FM3 (Homo sapiens, UniProt Q9HB89); assay: Receptor binding test: inhibition of 125I-NMU8 binding to FM3 membrane fraction; settings: ratio of IC50 values when the affinity of NMU-8 was 1; 125I-NMU8 135 pM, CHO cell membrane fraction
T1 construct: expressed in transfected cells; host or cells: CHO (dhfr-) cells; membrane fraction
T1 sequence (Q9HB89 1-426): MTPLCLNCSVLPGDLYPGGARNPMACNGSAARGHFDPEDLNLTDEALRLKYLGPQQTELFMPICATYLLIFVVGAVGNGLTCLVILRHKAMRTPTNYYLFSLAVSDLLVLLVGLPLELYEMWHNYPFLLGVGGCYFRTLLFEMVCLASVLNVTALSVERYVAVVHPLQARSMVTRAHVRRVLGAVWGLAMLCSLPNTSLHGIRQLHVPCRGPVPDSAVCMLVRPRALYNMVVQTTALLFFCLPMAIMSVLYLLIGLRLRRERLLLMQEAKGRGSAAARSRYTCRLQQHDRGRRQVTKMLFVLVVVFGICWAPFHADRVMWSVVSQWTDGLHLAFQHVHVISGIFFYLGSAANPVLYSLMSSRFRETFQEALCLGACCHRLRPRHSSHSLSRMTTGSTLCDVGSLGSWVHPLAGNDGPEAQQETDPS

[2] = target: T2, human TGR1 (Homo sapiens, UniProt Q9GZQ4); assay: Receptor binding test: inhibition of 125I-NMU8 binding to TGR1 membrane fraction; settings: ratio of IC50 values when the affinity of NMU-8 was 1; 125I-NMU8 135 pM, CHO cell membrane fraction
T2 construct: expressed in transfected cells; host or cells: CHO (dhfr-) cells; membrane fraction
T2 sequence (Q9GZQ4 whole entry): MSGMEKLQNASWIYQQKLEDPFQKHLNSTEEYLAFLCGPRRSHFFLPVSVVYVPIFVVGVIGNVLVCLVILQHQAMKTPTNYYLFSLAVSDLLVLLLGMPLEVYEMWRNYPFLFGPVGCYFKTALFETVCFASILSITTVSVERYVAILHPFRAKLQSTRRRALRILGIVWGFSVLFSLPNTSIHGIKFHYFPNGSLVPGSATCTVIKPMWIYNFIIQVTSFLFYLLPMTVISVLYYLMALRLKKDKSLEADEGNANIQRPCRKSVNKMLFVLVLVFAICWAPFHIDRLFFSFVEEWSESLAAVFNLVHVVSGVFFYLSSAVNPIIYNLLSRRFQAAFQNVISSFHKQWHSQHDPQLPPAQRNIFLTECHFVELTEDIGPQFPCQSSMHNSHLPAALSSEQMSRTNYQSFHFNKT
Experimental: CHO cells expressing Human FM3 (dhfr-) and CHO cells expressing human TGR1 (dhfr-) were cultured in 10% dialyzed FBS-containing MEMα (Invitrogen) medium under conditions of 5% carbon dioxide at 37° C. The adherent cells were detached with 10 mL of 0.1 mM EDTA-containing D-PBS (Invitrogen) and centrifuged for 10 minutes at 1,000 rpm at 4° C., thereby collecting the cells. 15 mL of homogenized buffer (10 mM NaHCO3 (pH 7.4), 5 mM EDTA, protease inhibitor=0.5 mM PMSF, 10 μg/mL Pepstatin A, 20 μg/mL Leupeptin, and 4 μg/mL E-64) was added to the obtained cell pellets, the cellular membrane was disrupted using a polytron homogenizer (Kinematica GmbH), centrifugation was conducted for 10 minutes at 1,000 g at 4° C., and the supernatant was collected. This process was further repeated twice, and ultracentrifugation was conducted for 60 minutes at 30,000 rpm at 4° C. Thereafter, 8 mL of homogenized buffer was added to the pellets and suspended homogeneously to prepare a membrane fraction. The protein concentration of the FM3-expressing CHO cellular membrane fraction was 1.2 mg/mL, and the protein concentration of the TGR1-expressing CHO cellular membrane fraction was 1.1 mg/mL.
The affinity of the NMU-8 derivatives and PEG conjugates shown in Table 2 (Table 2-1 and Table 2-2) with respect to each receptor was evaluated based on the inhibition of ^125I-NMU8 labeled ligand binding to the FM3 membrane fraction or to the TGR1 membrane fraction. Specifically, each of the NMU derivatives and PEG conjugates was dissolved in DMSO so as to prepare 2 μL of each dilution series of the NMU derivatives and PEG conjugates. Then, 100 μL of membrane fraction solutions diluted with a reaction buffer (50 mM HEPES, 1 mM EDTA protease inhibitor (0.5 mM PMSF), 10 μg/mL Pepstatin A, 20 μg/mL Leupeptin, and 4 μg/mL E-64, pH 6.8, 0.1% BSA) was added thereto, followed by further addition of 100 μL of the labeled ligand (final concentration: 135 pM) similarly diluted with the reaction buffer. The resulting product was thoroughly mixed, and then a reaction was carried out at 25° C. for 70 minutes. In accordance with the above-described procedure, the binding amount of the labeled ligand remaining in the filter was measured using a top count (PerkinElmer) by a liquid scintillation method, and the IC50 values were calculated using a Graph Pad Prism (FIG. 1 (FM3 receptor binding), FIG. 2 (TGR1 receptor binding), and Table 2).

[3] = Anorectic activity via peripheral administration; assay type: in vivo

FM3 Receptor Binding IC50 ratio [1] | TGR1 Receptor Binding IC50 ratio [2] | Substance | anorectic activity [3]
92 | 1.9 | β-Ala0,Trp2,NMeAla6-NMU-8 [Compound 17] | –
5.3 | 2.2 | PEG30k-NH-β-Ala0,Val3-NMU-8 [Compound D] | –
1600 | 47 | PEG20k-NH-β-Ala0,Trp2,NMeAla6-NMU-8 [Compound Q] | –
24000 | 25 | NpipAc0,Glu2,Ala6-NMU-8 [Compound 19] | –
150 | 34 | PEG30k-NH-β-Ala0,Asp8-NMU-8 [Compound L] | –
0.31 | 3.9 | β-Ala0,Gln3-NMU-8 [Compound 2] | –
1.5 | 8.5 | PEG30k-NH-β-Ala0,Arg1-NMU-8 [Compound G] | –
900 | 1.9 | NpipAc0,Trp2,Ala6-NMU-8 [Compound 20] | –
99 | 1.7 | NpipAc0,Nal(2)2,NMeAla6-NMU-8 [Compound 22] | –
9.0 | 29 | PEG30k-NH-β-Ala0,NMeArg5-NMU-8 [Compound M] | –
0.27 | 0.66 | 2-(piperazin-1-yl)acetyl-Arg3-NMU8 [Compound 10] | –
– | – | Tyr-Phe-Leu-Phe-Arg-Pro-Arg-Asn-NH2 [NMU-8] | does not induce an anorectic activity
>10000 | – | PEG20k-NpipAc-Glu2,NMeAla6-NMU8 ({PEG20k-Acetyl(2-(piperazin-1-yl))}-YELFR[NMeA]RN-NH2) [Compound U] | –
8.6 | 19 | β-Ala0,NMeLeu3,NMeArg7-NMU-8 [Compound 15] | –
6.3 | 3.6 | β-Ala0,Arg(Me)7-NMU-8 [Compound 14] | –
>10000 | – | PEG20k-NpipAc-Trp2,Ala6-NMU8 ({PEG20k-Acetyl(2-(piperazin-1-yl))}-YWLFRARN-NH2) [Compound T] | –
11000 | – | PEG20k-NPipAc-Phe1, Trp2,Ala6-NMU-8 ({PEG20k-Acetyl(2-(piperazin-1-yl))}-FWLFRARN-NH2) [Compound K] | –
1.7 | 2.6 | PEG30k-NH-β-Ala0,Arg3-NMU-8 [Compound C] | –
0.43 | 0.37 | β-Ala0,Val3-NMU-8 [Compound 4] | –
6500 | 5.5 | NpipAc0,Glu2,NMeAla6-NMU-8 [Compound 21] | –

FM3 Receptor Binding IC50 ratio [1] | TGR1 Receptor Binding IC50 ratio [2] | Substance | anorectic activity [3]
0.42 | 3.7 | β-Ala0,Arg1-NMU-8 [Compound 7] | –
– | – | NMU-23: Rat NMU consists of 23 amino acid residues, and is named NMU-23 (YKVNEYQGPVAPSGGFFLFRPRN; ends and bridges not checked; UniProt P12760 144-166, looked up) | induces an anorectic activity
>10000 | – | PEG20k-NpipAc-Glu2,Ala6-NMU8 ({PEG20k-Acetyl(2-(piperazin-1-yl))}-YELFRARN-NH2) [Compound S] | –
160 | 9.6 | PEG30k-NH-β-Ala0,Gln5-NMU-8 [Compound A] | –
83 | 240 | PEG20k-NH-β-Ala0,NMeTyr1,NMeLeu3,NMeArg5-NMU-8 [Compound P] | –
9.4 | 21 | PEG30k-NH-β-Ala0,Pro1-NMU-8 [Compound H] | –
8.1 | 1.7 | PEG30k-NH-β-Ala0,Tyr2-NMU-8 [Compound E] | –
75 | 170 | PEG20k-NH-β-Ala0,NMeLeu3,NMeArg7-NMU-8 [Compound O] | –
0.55 | 9.9 | β-Ala0,Cha3-NMU-8 [Compound 6] | –
280 | 0.19 | NpipAc0,Phe1,Trp2,Ala6-NMU-8 [Compound 11] | –
26000 | 31 | β-Ala0,Glu2,NMeAla6-NMU-8 [Compound 18] | –
0.46 | 1.1 | β-Ala0,NMeArg5-NMU-8 [Compound 13] | –
15 | 3.4 | β-Ala0,Gln5-NMU-8 [Compound 1] | –
0.07 | 0.38 | β-Ala0,Arg3-NMU-8 [Compound 3] | –
290 | 63 | PEG30k-NH-β-Ala0,Arg(Me) 7-NMU-8 [Compound N] | –
2.4 | 2.0 | β-Ala0,Asp8-NMU-8 [Compound 12] | –
1.3 | 11 | PEG30k-NH-β-Ala0,Cha3-NMU-8 [Compound F] | –
>7300 | – | PEG20k-NH-β-Ala0,Glu2,NMeAla6-NMU-8 ({PEG20k-βAla}-YELFR[NMeA]RN-NH2) [Compound R] | –
0.59 | 3.8 | β-Ala0,Pro1-NMU-8 [Compound 8] | –
1.8 | 7.3 | PEG30k-NH-β-Ala0,Gln3-NMU-8 [Compound B] | –
